3 molecules from ChEMBL document CHEMBL1131799, “Polyunsaturated fatty acid anilides as inhibitors of acyl-coA: cholesterol acyltransferase (ACAT)” (Bioorg Med Chem Lett, 1999) can be followed below.

Assay [1] addresses T1, Acyl-CoA:cholesterol acyltransferase (Oryctolagus cuniculus, UniProt Q95214).
T1 sequence (Q95214 whole entry): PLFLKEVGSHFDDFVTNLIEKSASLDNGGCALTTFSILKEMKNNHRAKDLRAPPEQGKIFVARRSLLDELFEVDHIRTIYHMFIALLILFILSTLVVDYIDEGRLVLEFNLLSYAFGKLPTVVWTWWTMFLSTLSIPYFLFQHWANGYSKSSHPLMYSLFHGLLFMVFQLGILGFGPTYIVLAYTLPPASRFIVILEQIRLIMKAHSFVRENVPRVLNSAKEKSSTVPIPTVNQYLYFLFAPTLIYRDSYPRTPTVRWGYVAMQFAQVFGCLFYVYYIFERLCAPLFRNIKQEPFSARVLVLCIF
The assay can be described thus: Compound was tested for inhibitory activity against ACAT from rabbit liver.

The target in assay [2] is T1, Acyl-CoA:cholesterol acyltransferase. The assay is described as follows: Compound was tested for inhibitory activity against ACAT from rabbit adrenal gland. It is filed as tissue-based.
The target of another assay is O-acyltransferase (Oryctolagus cuniculus, UniProt G1SFD9). The assay can be described thus: Compound was tested for inhibitory activity against ACAT from rabbit intestine. Format: tissue-based.
O-acyltransferase, sequence (G1SFD9 1-524): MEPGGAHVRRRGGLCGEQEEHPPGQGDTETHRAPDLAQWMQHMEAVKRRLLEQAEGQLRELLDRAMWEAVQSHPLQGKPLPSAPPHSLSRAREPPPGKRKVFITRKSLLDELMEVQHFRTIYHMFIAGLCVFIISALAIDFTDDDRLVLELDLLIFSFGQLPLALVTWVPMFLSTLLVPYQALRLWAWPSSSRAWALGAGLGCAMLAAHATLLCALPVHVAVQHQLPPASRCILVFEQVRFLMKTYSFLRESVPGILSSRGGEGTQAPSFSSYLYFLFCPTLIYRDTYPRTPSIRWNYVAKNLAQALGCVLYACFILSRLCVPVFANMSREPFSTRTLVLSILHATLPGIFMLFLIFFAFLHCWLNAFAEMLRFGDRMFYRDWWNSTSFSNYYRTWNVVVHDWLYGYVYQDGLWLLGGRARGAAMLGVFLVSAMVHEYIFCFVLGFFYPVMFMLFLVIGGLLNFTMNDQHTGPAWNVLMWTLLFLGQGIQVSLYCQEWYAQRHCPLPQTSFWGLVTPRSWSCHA

The IC50 is the concentration that inhibits the measured activity by half. Consider `C/C=C/C/C=C/C/C=C/C/C=C/C/C=C/C/C=C/CCCC(=O)Nc1c(C(C)C)cccc1C(C)C`, for which the results for the IC50 (in assay [1]; in assay [2]; at O-acyltransferase) were 56 nM, 228 nM and 45 nM, respectively.

For the molecule `CCCCCCCCCCCCCC(=S)Nc1c(C(C)C)cccc1C(C)C`, the half-maximal inhibitory concentration (IC50) amounted to 15 nM in assay [1], 554 nM in assay [2] and 6 nM on O-acyltransferase.

`CCCCCCCCCCC(C)(C)C(=O)Nc1c(OC)cc(OC)cc1OC` [CL-976]: the values for the IC50 in assay [1] and in assay [2] were 191 nM and 1950 nM, respectively.
